Experimental data as given in patent publication US6503952B2, “Triple antimicrobial composition” (The Trustees of Columbia University in the City of New York, priority 1995, dated 2003).

Columns and labels:
[1] = test system: Staphylococcus aureus; assay: Colony counts with CHX and PCMX (in 5% isopropanol) in the presence of blood; type: cell-based; settings: Table 11: in 5% isopropanol, control 3 × 10^6
Description: […] After one minute, a 50 microliter aliquot from each sample was diluted to a volume of 10 ml with LTSB drug inactivating medium (5% Tween 80, 2% lecithin, 0.6% sodium oleate, 0.5% sodium thiosulfate, 0.1% protease peptone and 0.1% tryptone), and then 0.5 ml of the diluted culture was plated on trypticase soy agar plates. The plates were incubated at 37° C. for 24 hours, and then colony counts per milliliter of the original 1 ml antimicrobial containing culture were determined.

[2] = test system: Staphylococcus aureus; assay: Rate of kill: colony counts after one minute exposure of Staphylococcus aureus in TSB broth with 20% serum; type: cell-based; settings: for CFU/mL: Table 15: single agent, control 2.0 × 10^7
Description: To produce each sample, 0.1 ml of a ten-fold concentrated antimicrobial solution was added to 0.9 ml of TSB broth containing 20% serum and 107 colony forming units (CFU) of Staphylococcus aureus. After one minute, a 50 microliter aliquot from each sample was diluted to a volume of 10 ml with LTSB drug inactivating medium (5% Tween 80, 2% lecithin, 0.6% sodium oleate, 0.5% sodium thiosulfate, 0.1% protease peptone and 0.1% tryptone), and then 0.5 ml of the diluted culture was plated on trypticase soy agar plates. The plates were incubated at 37° C. for 24 hours, and then colony counts per milliliter of the original 1 ml antimicrobial containing culture were determined.
Using the same methods set forth in example section 5, above, the rate of kill of compositions comprising PHMB, PCMX, BZK and PXE were tested. […] Synergy was also observed among 0.1% PXE+0.05% PHMB+0.05% PCMX.

Compound parachlorometaxylenol [.5% PCMX] has a CFU/ml [1] of 0 CFU/ml.
For `[H]/N=C(\N/C(=N/[H])NCCCCCCNC(=N)NC(=N)Nc1ccc(Cl)cc1)Nc1ccc(Cl)cc1` [.5% CHX, chlorhexidine], the CFU/ml [1] was 1 × 10^5 CFU/ml.
In the case of polyhexamethylene biguanide [PHMB], the CFU/mL ([2]; concentration 0.025%) is reported as 5.0 × 10^6 CFU/mL, the CFU/mL ([2]; concentration 0.05%) is reported as 2.0 × 10^6 CFU/mL and the CFU/mL ([2]; concentration 0.1%) is reported as 4.0 × 10^6 CFU/mL.
parachlorometaxylenol [.125% PCMX] was tested, and the CFU/ml [1] was 1 × 10^6 CFU/ml.
benzalkonium chloride [BZK] was tested, and the CFU/mL ([2]; concentration 0.02%) was 2.0 × 10^7 CFU/mL.
For parachlorometaxylenol [.25% PCMX], the CFU/ml [1] was 1.4 × 10^4 CFU/ml.
In the case of `[H]/N=C(\N/C(=N/[H])NCCCCCCNC(=N)NC(=N)Nc1ccc(Cl)cc1)Nc1ccc(Cl)cc1` [1% CHX, chlorhexidine], the CFU/ml [1] is reported as 1 × 10^4 CFU/ml.
With parachlorometaxylenol [PCMX] the “decrease in the number of CFU relative to control (factor / fold)” value ([2]; 2.5% ISOPR samples, relative to the control named in the text (A1, A2, A4 or the no-antimicrobial control)) was “ten”, the CFU/mL ([2]; concentration 0.05%) was 5.0 × 10^6 CFU/mL and the CFU/mL ([2]; concentration 0.1%) was 1.6 × 10^3 CFU/mL.
